According to ChEMBL document CHEMBL4396934, “Novel α,β-unsaturated hydroxamic acid derivatives overcome cisplatin resistance” (Bioorg Med Chem, 2019):

Target: Histone deacetylase
Assay: Inhibition of HDAC in human A2780 cells using Boc-Lys(epsilon-Ac)-AMC as substrate preincubated for 18 hrs followed by substrate addition and further incubation for 3 hrs by microplate reader based fluorescence assay
Type: cell-based
Conditions: not given

Row | IC50 [nM] | Compound
1 | 940 | O=C(/C=C/c1ccc(CONC(=O)c2ccccc2)cc1)NO
2 | 19200 | O=C(/C=C/c1ccc(CONC(=O)c2csc(-c3ccccc3)n2)cc1)NO
3 | 1540 | Cc1cc(C)cc(NC(=O)NOCc2ccc(/C=C/C(=O)NO)cc2)c1
4 | 190000 | O=C(/C=C/c1ccc(CONC(=O)Nc2ccccc2)cc1)NO
5 | 1120 | Cc1[nH]c2ccccc2c1CC(=O)NOCc1ccc(/C=C/C(=O)NO)cc1

Test system: CAL-27
Assay: Antiproliferative activity against human CAL27 cells after 72 hrs by microplate reader based MTT assay
Type: functional, cell-based
Conditions: CAL-27, 72 h

Row | Compound | IC50 [nM]
6 | O=C(/C=C/c1ccc(CONC(=O)c2ccccc2)cc1)NO | 2990
7 | O=C(/C=C/c1ccc(CONC(=O)c2csc(-c3ccccc3)n2)cc1)NO | 16300
8 | Cc1cc(C)cc(NC(=O)NOCc2ccc(/C=C/C(=O)NO)cc2)c1 | 2270
9 | O=C(/C=C/c1ccc(CONC(=O)Nc2ccccc2)cc1)NO | 62000
10 | Cc1[nH]c2ccccc2c1CC(=O)NOCc1ccc(/C=C/C(=O)NO)cc1 | 5250

Test system: A2780
Assay: Antiproliferative activity against human A2780 cells after 72 hrs by microplate reader based MTT assay
Type: functional, cell-based
Conditions: A2780, 72 h

Row | IC50 [nM] | Compound
11 | 2080 | O=C(/C=C/c1ccc(CONC(=O)c2ccccc2)cc1)NO
12 | 2020 | O=C(/C=C/c1ccc(CONC(=O)c2csc(-c3ccccc3)n2)cc1)NO
13 | 2010 | Cc1cc(C)cc(NC(=O)NOCc2ccc(/C=C/C(=O)NO)cc2)c1
14 | 112000 | O=C(/C=C/c1ccc(CONC(=O)Nc2ccccc2)cc1)NO
15 | 14000 | Cc1[nH]c2ccccc2c1CC(=O)NOCc1ccc(/C=C/C(=O)NO)cc1

Target: Histone deacetylase
Assay: Inhibition of HDAC in human CAL27 cells using Boc-Lys(epsilon-Ac)-AMC as substrate preincubated for 18 hrs followed by substrate addition and further incubation for 3 hrs by microplate reader based fluorescence assay
Type: cell-based
Conditions: not given

Row | IC50 [nM] | Compound
16 | 1160 | O=C(/C=C/c1ccc(CONC(=O)c2ccccc2)cc1)NO
17 | 11600 | O=C(/C=C/c1ccc(CONC(=O)c2csc(-c3ccccc3)n2)cc1)NO
18 | 1120 | Cc1cc(C)cc(NC(=O)NOCc2ccc(/C=C/C(=O)NO)cc2)c1
19 | 144000 | O=C(/C=C/c1ccc(CONC(=O)Nc2ccccc2)cc1)NO
20 | 2650 | Cc1[nH]c2ccccc2c1CC(=O)NOCc1ccc(/C=C/C(=O)NO)cc1
